Where “and” joins values, the source holds several entries; their conditions need not be identical. Equal values may be shown once. Read-outs that look alike come from different tables or passages of the source. Where a SMILES comes first, the peptide text is derived from it. Where no end group is shown, it is not given here. [ ]: non-standard residue; d: D form. The star is where a group is joined. DOTA = O=C(O)CN1CCN(CC(=O)O)CCN(CC(=O)*)CCN(CC(=O)O)CC1; Hyp = O=C(O)[C@@H]1C[C@@H](O)CN1; Cha = N[C@@H](CC1CCCCC1)C(=O)O; PEG2 = NCCOCCOCCC(=O)O; Ahx = NCCCCCC(=O)O; Sar = CNCC(=O)O

Results on 6 compounds are retold here after US10039846B2, “Compositions targeting bradykinin receptor B1 for medical imaging of cancer and other disorders” (BRITISH COLUMBIA CANCER AGENCY BRANCH, priority 2012, dated 2018).

One data set can be described thus: in vivo. The note with it: NODSCID/IL2RKO, mouse, total radioactivity. The procedure:
(§1) ^68Ga labeling of Peptide 4 was performed in NaOAc buffer (pH 4.1) at 110° C. for 10 min, and [^68Ga]P03083 was purified by HPLC. PET imaging and biodistribution studies were performed in NODSCID/IL2RKO mice bearing both B1R-negative HEK293T:GFP tumour and B1R-positive HEK293T:hB1R tumour.

Data set [1] relates to B1R-negative HEK293T:GFP tumour and B1R-positive HEK293T:hB1R tumour. Kind of data set: in vivo. The note with it: mouse. The procedure:
as §1

The subject of data set [2] is HEK-293 and HEK-293/BKRB1 tumours. The data set is described as follows: PET/CT imaging of 68Ga-labelled peptides in tumour-bearing mice. Conditions: PET/CT 60 minutes after intravenous injection.
Procedure: (§2) For in vivo imaging, HEK-293 and HEK-293 cells stably transfected with the human bradykinin receptor B1 (HEK-293/BKRB1) were inoculated in the flank of immunodeficient mice (NODSCID IL2rKO). […] A computer tomography image of the mouse was obtained for organ localization and attenuation correction, followed by PET imaging, using a Siemens Inveon multimodality preclinical scanner. Images were acquired over 10-15 minutes for each animal.
For data set [3] the test system is unchanged. Conditions: mouse.
Procedure: as §2
A further data set has as its target T1, B2R (Homo sapiens, UniProt P30411).
T1 sequence (P30411 1-391): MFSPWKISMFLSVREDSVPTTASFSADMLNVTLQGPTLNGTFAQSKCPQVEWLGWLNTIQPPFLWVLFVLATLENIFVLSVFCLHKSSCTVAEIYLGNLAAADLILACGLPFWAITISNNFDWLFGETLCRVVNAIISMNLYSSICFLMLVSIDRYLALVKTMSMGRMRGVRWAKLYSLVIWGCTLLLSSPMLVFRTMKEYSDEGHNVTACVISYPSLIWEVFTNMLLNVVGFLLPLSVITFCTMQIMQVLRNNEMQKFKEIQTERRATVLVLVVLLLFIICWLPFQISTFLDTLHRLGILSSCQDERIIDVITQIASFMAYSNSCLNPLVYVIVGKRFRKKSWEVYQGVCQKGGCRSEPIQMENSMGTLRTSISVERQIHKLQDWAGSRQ
The note with it: Cote et al, Peptides 2009; cited from earlier work.

Data set [4] addresses T2, B1R (Homo sapiens, UniProt P46663).
T2 sequence (P46663 1-353): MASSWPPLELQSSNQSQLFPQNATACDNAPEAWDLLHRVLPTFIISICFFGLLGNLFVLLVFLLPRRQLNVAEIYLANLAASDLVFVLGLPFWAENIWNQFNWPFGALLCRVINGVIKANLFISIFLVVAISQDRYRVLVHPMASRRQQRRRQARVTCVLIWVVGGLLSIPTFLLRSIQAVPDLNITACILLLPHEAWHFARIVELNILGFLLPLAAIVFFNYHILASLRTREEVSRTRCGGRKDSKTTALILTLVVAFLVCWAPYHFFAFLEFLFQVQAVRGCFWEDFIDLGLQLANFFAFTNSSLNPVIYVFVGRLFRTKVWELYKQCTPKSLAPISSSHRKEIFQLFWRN
Conditions: Cote et al, Peptides 2009; cited from earlier work.

Data set [5] deals with T2, B1R. The data set is described as follows: Competitive binding assay with 3H radioligand on CHO-K1 cell membranes over-expressing human B1R. More on the design: purchased Perkin Elmer Inc., Waltham, Mass; ES-091-M400UA; host or cells: CHO-K1 cells over-expressing human B1R (membrane preparation). The procedure:
The ability of the peptide and small molecule B1R targeting compounds to bind to B1R was assessed in competitive binding assay as described below.
Preparation of Cell Membranes: Ready to use cell membranes (12.5 μg/μL) from CHO-K1 cells over-expressing human B1R were obtained from Perkin Elmer Inc., Waltham, Mass. (cat. no. ES-091-M400UA). Binding using cell membranes from HEK293T::GFP::hB1R (from Example 3) was also tested. In the latter case, the membranes were prepared as follows: 90% confluent cells grown in large flask, T225, were detached and pelleted in a 50 mL conical tube using centrifuge at 1,200 rpm for 5 minutes. Afterward, cells were re-suspended in 20-30 mL of cold 50 mM Tris-HCl pH 7.4. Ice cold cells were disrupted for 15 seconds at 15,000 rpm with a Polytron PT3100 (Kinematica AG, Lucerne, Switzerland). The solution was aliquoted and centrifuged at 4° C. at 17,000×g for 30 minutes. The supernatant was discarded, and then the pellet was dissolved in 1-2 mL of cold salt solution containing 50 mM Tris-HCl pH 7.4 and 100 mM NaCl and incubated for 1 hour on ice. The cell membranes were pelleted by centrifugation at 4° C. at 17,000×g for 30 minutes and resuspended in 200-600 μL of 50 mM Tris-HCl pH 7.4. The cell membrane extract was stored at −80° C. Protein concentration was determined by Bradford assay (cat. no. R1271, Fermentas, Thermo Fisher Scientific, Burlington, ON). 50 ug of cell membranes per well was used for the competitive binding assay. […] Radio-labelled control was H-3 labelled [Leu^9,des-Arg^10] kallidin obtained either from American Radiolabelled Chemicals Inc, St. Louis, Mo.
Competitive Binding Assays: Assays were performed using 96-well MultiScreenHTS with glass fiber filter and PVDF support obtained from Millipore Corp, Billerica, Mass. (cat. no. MSFB N6B, lot no. R8AN42424). Wells of the MultiScreen plate were pre-soaked with 0.5% of cold Poly(ethyleneimine) (PEI) (cat. no. P3143, Sigma-Aldrich, St. Louis, Mo.) for 30 minutes. Afterward, wells were washed once with 50 mM of Tris-HCl pH 7.4. Total volume per wells was 200 μL. A fixed concentration of the hot radioligand (1, 3, 5 or 12.5 nM depending on the radioligand; see Table 5) was incubated with progressively higher concentrations (10^−11 to 10^−4 M) of the non-radioactive competitor of interest in the presence of cell membranes (50 μg/well) and the assay buffer (50 mM Tris-HCl pH 7.4, 5 mM MgCl2). The MultiScreen plate was then incubated at 27° C. for 15 minutes with agitation at 300 rpm. The assay was stopped by suctioning the reaction solution through the bottom PVDF membrane filter and discarded. The membranes were washed 7× with 150 μL/well of cold 50 mM Tris-HCl pH 7.4. Radioactivity was counted using 1450 MicroBeta TriLux—Microplate Scintillation and Luminescence Counter (Perkin Elmer Inc., Shelton, Conn.).

As usually defined, the tissue uptake is the share of the injected amount in each gram of the tissue. Consider `CC(C)C[C@H](NC(=O)[C@@H]1CCCN1C(=O)[C@H](CO)NC(=O)[C@H](Cc1ccccc1)NC(=O)CNC(=O)[C@@H]1CCCN1C(=O)[C@@H]1CCCN1C(=O)[C@H](CCCNC(=N)N)NC(=O)[C@H](CCCCN)NC(=O)CCCCCNC(=O)CN1CCN(CC(=O)O)CCN(CC(=O)O)CCN(CC(=O)O)CC1)C(=O)O` [[^68Ga]-Peptide 4, metal not drawn], for which the tissue uptake at 1 h in the data set “in vivo” (kidney uptake) was 74.9 ± 29.2 %ID/g. Further, the tissue uptake at 1 h in the data set “in vivo” (uptakes in both B1R-negative and B1R-positive tumors) is 1.1 ± 0.4 %ID/g. Further, in data set [1], the excretion of radioactivity entry is “mainly excreted through the renal pathway” and the “specific uptake to B1R in tumours” value is given as “No specific uptake”.
For `CC(C)C[C@H](NC(=O)[C@@H]1CCCN1C(=O)[C@H](CO)NC(=O)[C@H](CC1CCCCC1)NC(=O)CNC(=O)[C@@H]1C[C@@H](O)CN1C(=O)[C@@H]1CCCN1C(=O)[C@H](CCCNC(=N)N)NC(=O)[C@H](CCCCN)NC(=O)CNC(=O)CNC(=O)CN1CCN(CC(=O)O)CCN(CC(=O)O)CCN(CC(=O)O)CC1)C(=O)O` [Peptide 8, Ga-DOTA-Gly-Gly-Lys-Arg-Pro-Hyp-Gly-Cha-Ser-Pro-Leu] ({DOTA}-GGKRP[Hyp]G[Cha]SPL-OH), in data set [2], the clearance route result was “predominantly via the kidneys and bladder”; the “uptake / visualization of B1R+ tumour” value is listed as “good visualization of B1R+ expressing cells”; the “uptake in negative control (B1R-) tumour” value was “essentially negligible non-specific uptake”.
Turning to `N=C(N)NCCC[C@H](NC(=O)[C@H](CCCCN)NC(=O)CCCCCNC(=O)CN1CCN(CC(=O)O)CCN(CC(=O)O)CCN(CC(=O)O)CC1)C(=O)N1CCC[C@H]1C(=O)N1C[C@H](O)C[C@H]1C(=O)NCC(=O)N[C@@H](CC1CCCCC1)C(=O)N[C@@H](CO)C(=O)N1CCC[C@H]1C(=O)N[C@H](Cc1ccccc1)C(=O)O` [Peptide 12, Ga-DOTA-Ahx-Lys-Arg-Pro-Hyp-Gly-Cha-Ser-Pro-(D-Phe)], in data set [2], the background activity result was “minimal background activity”; the clearance route entry is “good clearance through the kidneys and bladder”; the “uptake / visualization of B1R+ tumour” value is recorded as “Slightly higher tumour uptake”; the “uptake in negative control (B1R-) tumour” value was “no non-specific tumour uptake”.
On to `CC(C)C[C@H](NC(=O)[C@@H]1CCCN1C(=O)[C@H](CO)NC(=O)[C@H](CC1CCCCC1)NC(=O)CNC(=O)[C@@H]1C[C@@H](O)CN1C(=O)[C@@H]1CCCN1C(=O)[C@H](CCCNC(=N)N)NC(=O)[C@H](CCCCN)NC(=O)CCCCCNC(=O)CN1CCN(CC(=O)O)CCN(CC(=O)O)CCN(CC(=O)O)CC1)C(=O)O` [Peptide 10, Ga-DOTA-Ahx-Lys-Arg-Pro-Hyp-Gly-Cha-Ser-Pro-Leu] ({DOTA-Ahx}-KRP[Hyp]G[Cha]SPL-OH), for which the in vivo stability result in data set [3] is listed as “much greater in vivo stability”. Besides, the background activity result in data set [3] (in vivo, iv) was “lower background uptake”.
Take “Sar-Lys-Arg-Pro-Hyp-Gly-Cha-Ser-Pro-(D-Phe) ([Sar]KRP[Hyp]G[Cha]SP[dF])”: the Ki is > 10000 nM with B2R and 0.06 nM with B1R [4].
For the compound `CC(C)C[C@H](NC(=O)[C@@H]1CCCN1C(=O)[C@H](CO)NC(=O)[C@H](CC1CCCCC1)NC(=O)CNC(=O)[C@@H]1C[C@@H](O)CN1C(=O)[C@@H]1CCCN1C(=O)[C@H](CCCNC(=N)N)NC(=O)[C@H](CCCCN)NC(=O)CCOCCOCCNC(=O)CN1CCN(CC(=O)O)CCN(CC(=O)O)CCN(CC(=O)O)CC1)C(=O)O` [Peptide 3, Ga-DOTA-PEG2-Lys-Arg-Pro-Hyp-Gly-Cha-Ser-Pro-Leu] ({DOTA-PEG2}-KRP[Hyp]G[Cha]SPL-OH), the Ki was 17.1 nM and 16 nM on B1R [5] (Hot 4.6 nM BK-ANT-ARC, CHO-K1 membranes, individual assays, read-out: Ki); 32.8 nM on B1R [5] (text of Example 5, referring to Example 4, read-out: binding affinity for B1R). In data set [3] (in vivo, iv), the background activity entry is given as “very low background activity”. Also, the clearance route result in data set [3] (in vivo, iv) is “renal and bladder clearance”.
